Like-named read-outs stand apart in the source and are kept apart here.
Tests used:
JAK-2 enzyme = JAK-2 enzyme (Homo sapiens, UniProt O60674); experiment: JAK2 inhibition assay (radiometric 33P filter assay); assay type: biochemical
Experimental: (§1) Compounds were screened for their ability to inhibit JAK using the assay shown below. Reactions were carried out in a kinase buffer containing 100 mM HEPES (pH 7.4), 1 mM DTT, 10 mM MgCl2, 25 mM NaCl, and 0.01% BSA.
(§2) Substrate concentrations in the assay were 5 μM ATP (200 uCi/μmole ATP) and 1 μM poly(Glu)4Tyr. Reactions were carried out at 25° C. and 1 nM JAK3.
(§3) To each well of a 96 well polycarbonate plate was added 1.5 μl of a candidate JAK3 inhibitor along with 50 μl of kinase buffer containing 2 μM poly(Glu)4Tyr and 10 μM ATP. This was then mixed and 50 μl of kinase buffer containing 2 nM JAK3 enzyme was added to start the reaction. After 20 minutes at room temperature (25° C.), the reaction was stopped with 50 μl of 20% trichloroacetic acid (TCA) that also contained 0.4 mM ATP. The entire contents of each well were then transferred to a 96 well glass fiber filter plate using a TomTek Cell Harvester. After washing, 60 μl of scintillation fluid was added and ^33P incorporation detected on a Perkin Elmer TopCount.
The assays were as described above in Example 25 except that JAK-2 enzyme was used, the final poly(Glu)4Tyr concentration was 15 μM, and final ATP concentration was 12 μM.

JAK3 = biological target: T1, JAK3 (Homo sapiens, UniProt P52333); experiment: JAK3 inhibition assay (radiometric 33P filter assay); assay type: biochemical
T1 sequence (P52333 1-1124): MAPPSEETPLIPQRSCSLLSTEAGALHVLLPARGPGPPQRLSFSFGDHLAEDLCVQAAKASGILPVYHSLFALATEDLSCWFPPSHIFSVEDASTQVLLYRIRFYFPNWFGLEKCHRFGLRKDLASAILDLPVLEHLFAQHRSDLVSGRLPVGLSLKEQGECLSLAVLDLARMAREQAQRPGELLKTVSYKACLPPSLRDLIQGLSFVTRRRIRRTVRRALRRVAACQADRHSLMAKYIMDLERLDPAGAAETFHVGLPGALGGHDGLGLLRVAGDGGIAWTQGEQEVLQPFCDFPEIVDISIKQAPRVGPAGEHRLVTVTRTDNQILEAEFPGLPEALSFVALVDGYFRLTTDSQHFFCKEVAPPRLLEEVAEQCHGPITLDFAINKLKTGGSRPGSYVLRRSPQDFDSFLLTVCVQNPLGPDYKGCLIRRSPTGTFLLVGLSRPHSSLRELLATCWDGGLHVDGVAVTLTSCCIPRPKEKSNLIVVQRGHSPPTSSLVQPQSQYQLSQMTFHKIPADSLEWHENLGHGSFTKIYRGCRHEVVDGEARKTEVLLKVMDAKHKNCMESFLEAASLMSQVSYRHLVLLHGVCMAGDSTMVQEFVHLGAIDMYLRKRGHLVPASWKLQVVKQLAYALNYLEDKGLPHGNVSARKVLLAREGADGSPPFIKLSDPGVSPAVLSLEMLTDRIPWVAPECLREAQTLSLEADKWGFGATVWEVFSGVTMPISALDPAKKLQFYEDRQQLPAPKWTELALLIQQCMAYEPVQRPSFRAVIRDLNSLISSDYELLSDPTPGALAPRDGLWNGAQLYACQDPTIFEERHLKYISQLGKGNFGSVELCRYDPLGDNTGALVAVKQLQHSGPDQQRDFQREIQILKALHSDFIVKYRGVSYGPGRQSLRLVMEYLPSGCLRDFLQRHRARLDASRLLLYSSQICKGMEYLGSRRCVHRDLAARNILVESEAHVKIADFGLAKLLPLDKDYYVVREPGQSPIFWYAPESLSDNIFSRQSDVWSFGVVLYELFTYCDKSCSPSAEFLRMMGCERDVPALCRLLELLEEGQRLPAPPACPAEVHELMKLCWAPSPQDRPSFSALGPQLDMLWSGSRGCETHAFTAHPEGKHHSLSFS
Experimental: as §1, §2, §3

[1] = 15 μM poly(Glu)4Tyr, 12 μM ATP, read-out: JAK2 inhibition data (Ki)
[2] = 1 μM poly(Glu)4Tyr, 5 μM ATP, 1 nM JAK3, 25° C., read-out: JAK3 inhibition data (Ki)

Sequence of JAK-2 enzyme (O60674 whole entry, species assumed): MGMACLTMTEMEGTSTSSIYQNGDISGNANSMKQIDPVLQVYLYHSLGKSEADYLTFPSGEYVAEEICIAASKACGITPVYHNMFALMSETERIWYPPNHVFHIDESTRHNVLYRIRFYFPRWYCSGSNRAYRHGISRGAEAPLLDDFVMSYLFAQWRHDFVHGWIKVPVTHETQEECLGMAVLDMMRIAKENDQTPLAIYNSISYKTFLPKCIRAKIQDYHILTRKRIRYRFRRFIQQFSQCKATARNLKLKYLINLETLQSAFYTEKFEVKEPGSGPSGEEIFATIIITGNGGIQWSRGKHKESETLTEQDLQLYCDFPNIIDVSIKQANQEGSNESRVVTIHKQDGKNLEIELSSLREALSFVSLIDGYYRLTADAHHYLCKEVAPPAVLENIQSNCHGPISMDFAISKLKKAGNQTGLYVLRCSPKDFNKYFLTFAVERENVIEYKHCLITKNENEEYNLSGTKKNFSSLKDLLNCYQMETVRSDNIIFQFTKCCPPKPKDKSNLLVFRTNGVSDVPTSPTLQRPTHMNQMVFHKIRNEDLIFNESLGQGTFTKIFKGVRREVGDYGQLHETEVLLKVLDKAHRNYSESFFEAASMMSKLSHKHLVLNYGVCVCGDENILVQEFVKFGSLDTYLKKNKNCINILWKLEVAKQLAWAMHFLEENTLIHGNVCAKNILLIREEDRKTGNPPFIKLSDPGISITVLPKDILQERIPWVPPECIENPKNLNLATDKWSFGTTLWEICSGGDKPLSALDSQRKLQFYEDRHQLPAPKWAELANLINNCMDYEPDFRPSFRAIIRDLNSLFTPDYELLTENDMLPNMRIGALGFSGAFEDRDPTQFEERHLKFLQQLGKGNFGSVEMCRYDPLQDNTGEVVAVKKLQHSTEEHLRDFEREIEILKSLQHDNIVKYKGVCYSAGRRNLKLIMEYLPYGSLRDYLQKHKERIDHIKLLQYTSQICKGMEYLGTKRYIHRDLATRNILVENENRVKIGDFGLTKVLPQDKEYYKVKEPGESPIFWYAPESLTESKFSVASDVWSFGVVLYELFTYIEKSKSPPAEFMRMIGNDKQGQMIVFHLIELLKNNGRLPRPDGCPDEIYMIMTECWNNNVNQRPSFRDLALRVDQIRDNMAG

Row | SMILES | Ki (JAK-2 enzyme; [1]) [nM] | Ki (JAK3; [2]) [nM] | Ki (JAK-2 enzyme) [nM] | Ki (JAK3) [nM]
1 | CCOC(=O)N1CCN(c2ccc(Nc3nc(N)n(-c4cc(N5CCCN(S(=O)(=O)CC)CC5)ncn4)n3)cc2)CC1 [Compound 145] | 50 to 500 | 50 to 500 |  | 
2 | CC(=O)N1CCCN(c2cc(-n3nc(Nc4ccc(NC(=O)O[C@H]5C[C@H](C)CC[C@H]5C(C)C)cc4)nc3N)ncn2)CC1 [Compound 97] | 50 to 500 | 50 to 500 |  | 
3 | CC(=O)N1CCCN(c2cc(-n3nc(Nc4ccc(N(C)C(=O)Oc5ccccc5)cc4)nc3N)ncn2)CC1 [Compound 134] |  |  | < 50 | < 50
4 | CCCCOC(=O)Nc1ccc(Nc2nc(N)n(-c3ccnc(N4CCCN(C(C)=O)CC4)c3)n2)cc1 [Compound 174] | 50 to 500 | 50 to 500 |  | 
5 | CCS(=O)(=O)N1CCN(c2ccc(Nc3nc(N)n(-c4ccnc(N5CCCN(C(=O)OC(C)C)CC5)c4)n3)cc2)CC1 [Compound 155] | 50 to 500 | 50 to 500 |  | 
6 | CC(=O)N1[C@H](C)CN(c2cc(-n3nc(Nc4ccc(NC(=O)OCC(C)(C)C)cc4)nc3N)ccn2)C[C@@H]1C [Compound 104] | < 50 | < 50 |  | 
7 | CCOC(=O)N1CCCN(c2cc(-n3nc(Nc4ccc(N5CCN(C(=O)OC(C)C)CC5)cc4)nc3N)ccn2)CC1 [Compound 157] | 50 to 500 | 50 to 500 |  | 
8 | CCOC(=O)Nc1ccc(Nc2nc(N)n(-c3ccnc(N4CCCN(C(C)=O)CC4)c3)n2)cc1 [Compound 171] | 50 to 500 | < 50 |  | 
9 | CC(=O)N1[C@H](C)CN(c2cc(-n3nc(Nc4ccc(N(C)C(=O)OC(C)C)cc4)nc3N)ncn2)C[C@@H]1C [Compound 119] | < 50 | < 50 |  | 
10 | N#CCC(=O)N1CCCN(c2cc(-n3nc(Nc4ccc(N5CCNCC5)cc4)nc3N)ncn2)CC1 [Compound 123] | < 50 | < 50 |  | 
11 | Nc1nc(Nc2ccc(N3CCOCC3)cc2)nn1-c1cc(N2CCN3C(=O)CC[C@H]3C2)ncn1 [Compound 22] | < 50 | < 50 |  | 
12 | CC(=O)N1CCCN(c2cc(-n3nc(Nc4ccc(N5CCN(C(=O)OC(C)(C)C)CC5)cc4)nc3N)ncn2)CC1 [Compound 34] | < 50 | < 50 |  | 
13 | CNc1ccc(Nc2nc(N)n(-c3cc(N4C[C@@H](C)N(C(C)=O)[C@@H](C)C4)ncn3)n2)cc1 [Compound 116] | < 50 | < 50 |  | 
14 | CC(=O)N1[C@H](C)CN(c2cc(-n3nc(Nc4ccc(NC(=O)NC(C)C)cc4)nc3N)ccn2)C[C@@H]1C [Compound 107] | < 50 | < 50 |  | 
15 | CC(=O)N1CCCN(c2cc(-n3nc(Nc4ccc(NC(=O)Oc5ccc(C)cc5)cc4)nc3N)ncn2)CC1 [Compound 96] | < 50 | < 50 |  | 
16 | CC(=O)N1CCCN(c2cc(-n3nc(Nc4ccc(NC(=O)NC(C)(C)C)cc4)nc3N)ncn2)CC1 [Compound 87] | < 50 | < 50 |  | 
17 | COC(=O)Nc1ccc(Nc2nc(N)n(-c3cc(N4C[C@@H](C)N(C(C)=O)[C@@H](C)C4)ncn3)n2)cc1 [Compound 75] | < 50 | < 50 |  | 
18 | Nc1nc(Nc2ccc(N3CCOCC3)cc2)nn1-c1ccnc(N2CCCOCC2)c1 [Compound 14] | 50 to 500 | 50 to 500 |  | 
19 | CC(=O)N1[C@H](C)CN(c2cc(-n3nc(Nc4ccc(NC(=O)OCC(C)C)cc4)nc3N)ccn2)C[C@@H]1C [Compound 100] | < 50 | < 50 |  | 
20 | CCOC(=O)N(C)c1ccc(Nc2nc(N)n(-c3cc(N4CCCN(C(C)=O)CC4)ncn3)n2)cc1 [Compound 127] | < 50 | < 50 |  | 
21 | CC(=O)N1CCCN(c2cc(-n3nc(Nc4ccc(N5CCOCC5)cc4)nc3N)ccn2)CC1 [Compound 1] | 50 to 500 | < 50 |  | 
22 | CC(C)(C)OC(=O)Nc1ccc(Nc2nc(N)n(-c3cc(N4CCCN(C(=O)CC#N)CC4)ncn3)n2)cc1 [Compound 136] | < 50 | < 50 |  | 

Continued, in another order:

Row | Ki (JAK-2 enzyme; [1]) [nM] | Ki (JAK3; [2]) [nM] | SMILES | Ki (JAK-2 enzyme) [nM] | Ki (JAK3) [nM]
23 | < 50 | < 50 | CCCNC(=O)Nc1ccc(Nc2nc(N)n(-c3cc(N4C[C@@H](C)N(C(C)=O)[C@@H](C)C4)ncn3)n2)cc1 [Compound 68] |  | 
24 | < 50 | < 50 | CC(=O)Nc1ccc(Nc2nc(N)n(-c3cc(N4C[C@@H](C)N(C(C)=O)[C@@H](C)C4)ncn3)n2)cc1 [Compound 112] |  | 
25 | < 50 | < 50 | CC(=O)N1CCCN(c2cc(-n3nc(Nc4ccc(NC(=O)c5cccnc5)cc4)nc3N)ncn2)CC1 [Compound 27] |  | 
26 | < 50 | < 50 | CC(=O)N1[C@H](C)CN(c2cc(-n3nc(Nc4ccc(N)cc4)nc3N)ccn2)C[C@@H]1C [Compound 99] |  | 
27 | < 50 | < 50 | CC(=O)N1[C@H](C)CN(c2cc(-n3nc(Nc4ccc(NC(=O)NC(C)(C)C)cc4)nc3N)ccn2)C[C@@H]1C [Compound 108] |  | 
28 | < 50 | < 50 | CC(=O)N1CCCN(c2cc(-n3nc(Nc4ccc(N5C[C@@H](C)O[C@@H](C)C5)cc4)nc3N)ncn2)CC1 [Compound 33] |  | 
29 | < 50 | < 50 | CC(=O)N1[C@H](C)CN(c2cc(-n3nc(Nc4ccc(NC(=O)OC(C)(C)C)cc4)nc3N)ncn2)C[C@@H]1C [Compound 84] |  | 
30 | < 50 | < 50 | CC(=O)CC(=O)N1CCCN(c2cc(-n3nc(Nc4ccc(N5CCOCC5)cc4)nc3N)ncn2)CC1 [Compound 6] |  | 
31 | < 50 | < 50 | CCOC(=O)N1CCN(c2ccc(Nc3nc(N)n(-c4cc(N5CCC6CCC(C5)N6C)ncn4)n3)cc2)CC1 (stereo not drawn) [Compound 166] |  | 
32 | < 50 | < 50 | CCOC(=O)N1CCN(c2ccc(Nc3nc(N)n(-c4cc(N5C[C@@H](C)N(C(C)=O)[C@@H](C)C5)ncn4)n3)cc2)CC1 [Compound 54] |  | 
33 | < 50 | 50 to 500 | CC(=O)N1[C@H](C)CN(c2cc(-n3nc(Nc4ccc(NC(=O)O[C@H]5C[C@H](C)CC[C@H]5C(C)C)cc4)nc3N)ncn2)C[C@@H]1C [Compound 82] |  | 
34 | < 50 | < 50 | CC(=O)N1CCCN(c2cc(-n3nc(Nc4ccc(N5CCN(C(=O)C6CCOCC6)CC5)cc4)nc3N)ncn2)CC1 [Compound 41] |  | 
35 | < 50 | < 50 | CC(=O)N1[C@H](C)CN(c2cc(-n3nc(Nc4ccc(N5CCN(C(=O)Nc6c(F)cccc6F)CC5)cc4)nc3N)ncn2)C[C@@H]1C [Compound 66] |  | 
36 | < 50 | < 50 | CC(=O)N1CCCN(c2cc(-n3nc(Nc4ccc(NC(=O)c5ccco5)cc4)nc3N)ncn2)CC1 [Compound 30] |  | 
37 | < 50 | < 50 | CCNC(=O)Nc1ccc(Nc2nc(N)n(-c3ccnc(N4C[C@@H](C)N(C(C)=O)[C@@H](C)C4)c3)n2)cc1 [Compound 105] |  | 
38 | < 50 | < 50 | CC(=O)N1CCCN(c2cc(-n3nc(Nc4ccc(N5CCN(C(=O)C6CC6)CC5)cc4)nc3N)ncn2)CC1 [Compound 39] |  | 
39 | < 50 | < 50 | CC(=O)N1[C@H](C)CN(c2cc(-n3nc(Nc4ccc(N5CCN(C(=O)OCC(C)(C)C)CC5)cc4)nc3N)ncn2)C[C@@H]1C [Compound 57] |  | 
40 | < 50 | < 50 | CC(=O)N1CCCN(c2cc(-n3nc(Nc4ccc(N(C)C(=O)OCC(C)(C)C)cc4)nc3N)ncn2)CC1 [Compound 132] |  | 
41 | < 50 | < 50 | CC(=O)N1[C@H](C)CN(c2cc(-n3nc(Nc4ccc(N5CCN(C(=O)OCC(C)C)CC5)cc4)nc3N)ncn2)C[C@@H]1C [Compound 58] |  | 
42 | < 50 | < 50 | CC(=O)N1[C@H](C)CN(c2cc(-n3nc(Nc4ccc(NC(=O)OC(C)(C)C)cc4)nc3N)ccn2)C[C@@H]1C [Compound 109] |  | 

Reference: patent US7329652B2, “Diaminotriazole compounds useful as protein kinase inhibitors” (Vertex Pharamaceuticals Incorporated, priority 2004, dated 2008)
